Measured values: publication PMC6030209, “Structure-Activity Investigations and Optimisations of Non-metabolite Agonists for the Succinate Receptor 1” (Scientific Reports, 2018)
Like-named read-outs stand apart in the source and are kept apart here.

Key:
[1] = physchem; assay type: physicochemical; conditions: pH 7.4, aqueous buffer, kinetic from dmso stock, 10 mM PBS7.4, 25 °C
Method: Duplicates of a 200 μM solution of the dicarboxylic acids were prepared from 0.01 M PBS7.4 and a 10 mM stock solution in DMSO. The samples were incubated in an Eppendorf® Thermomixer (25 °C, 800 rpm) for 24 h. Afterwards, the samples were centrifuged for 5 min at 11,000 rpm and the supernatant was filtered (0.45 μm PTFE membrane) before analysis by HPLC. The solubility was calculated based on a concentration-absorption curve.

[2] = tested on: SUCNR1; experiment: Active/inactive grouping by EC50 threshold (ALiBERO training set, Table S1); assay type: cell-based; conditions: active (1) / inactive (0), EC50 threshold of 10 µM
Description: In brief, starting from the homology model supported by mutagenesis data[4], ALiBERO introduced receptor flexibility via Normal Mode Analysis and Monte Carlo sampling, to generate a small subset of receptor models (pockets). […] For a list of all compounds used in the optimisation protocol, see Table S1. Receptor structures were then chosen based on their ability to discriminate actives from inactives in a retrospective virtual screening using the docking protocol and scoring function in ICM (Molsoft L.L.C., San Diego, CA, USA)[20], as measured by the normalised square root area under the curve (NSQ_AUC). […] The ALiBERO-optimised receptor ensemble was subsequently validated in a virtual ligand screening using an external test set with a higher active:decoy ratio (~1:50).
ALiBERO is an iterative sampling-selection protocol for receptor optimisation that relies on the use of ligand information for selecting the best-performing receptor conformations. Homology models of the mouse SUCNR1 receptor were constructed according to Trauelsen et al.[4] and loaded into ICM (Molsoft L.L.C., San Diego, CA, USA). The structure was converted into an ICM object, thereby assigning protein atom types, optimising hydrogens and His, Pro, Asn, […] and Cys side-chain conformations. […] For a list of all compounds used in the optimisation protocol, see Table S1. ALiBERO was performed using the prepared receptor structure and ligand training set as input. Binding site residues were manually selected based on proximity to the position of MRS2500 in the superimposed structure of the P2Y1 receptor (PDB 4XNW). 100 elastic network normal mode analysis derived conformers were built in order to recreate backbone and side-chain flexibility (T = 300 K). Next, a flexible-ligand static-receptor small-scale virtual screening was performed on each of the receptor conformers, from which several pockets were selected for the following generation. The ligand and decoy molecules were docked into mSUCNR1, represented as pre-calculated potential grids and then sorted according to their ICM VLS scores. The maximum number of complementary pockets for each generation was set to 5 with a maximum of 10 generations. Receptor models were selected based on their combined screening performance, as determined by the normalised square root area under the curve, NSQ_AUC. After each round of virtual screening, an all-atom Monte Carlo side-chain refinement was performed to account for induced-by-ligand changes. NSQ_AUC values were calculated according to Katritch et al.[16].

[3] = assay type: in vitro ADME, mouse; conditions: 1 hour, 1 μM, 0.5 mg/mL microsomes
Method: Microsomal stability was studied in mouse liver microsomes (0.5 mg/mL) at a final test compound concentration of 1 μM and performed in triplicates in accordance to the published protocol. In short: Prewarmed (37 °C) 0.1 M PBS7.4, 10 mM NADPH in PBS7.4 and test compound (1 mM in DMSO) were added to an Eppendorf® Tube. The samples were incubated for 5 min at 37 °C before addition of newly thawned microsomes. The samples were mixed by gentle vortexing and incubated for 1 h at 37 °C, 300 rpm in an Eppendorf® Thermomixer. Samples were quenched by addition of ice-cold MeOH/MeCN (1:1) and centrifuged for 5 min at 10,000 g. The supernatant was transferred to HPLC vials and stored in the freezer until analysis by HPLC/UPLC. The metabolic stability was calculated based on a 0 min sample. All compounds were analysed in triplicates.

[4] = assay type: physicochemical; conditions: after 70 hours in 10 mM PBS7.4, 37 °C
Method: Triplicates of a 50 μM solution of the test compounds were prepared from 0.01 M PBS7.4 and a 10 mM stock solution in DMSO. The samples were incubated in an Eppendorf® Thermomixer (37 °C, 650 rpm). The samples were briefly vortexed and 50 μL aliquots were withdrawn at the time points 0 h, 24 h, 48 h etc. and analysed immediately on UPLC. The chemical stability in PBS7.4 was determined at every time point in percentage relative to the 0 h time point.

[5] = target: T1, mSUCNR1 (Mus musculus, UniProt Q99MT6); experiment: IP3 turnover assay in mSUCNR1 transfected HEK-293 cells; assay type: cell-based; conditions: for mSUCNR1 efficacy, %: efficacy relative to succinate (100%), HEK cells (N = 3)
T1 construct: FLAG (own knowledge: pCMV-Tag 2B is an N-terminal FLAG vector); host or cells: HEK-293, transient transfection with Lipofectamine-2000
T1 sequence (Q99MT6 1-317): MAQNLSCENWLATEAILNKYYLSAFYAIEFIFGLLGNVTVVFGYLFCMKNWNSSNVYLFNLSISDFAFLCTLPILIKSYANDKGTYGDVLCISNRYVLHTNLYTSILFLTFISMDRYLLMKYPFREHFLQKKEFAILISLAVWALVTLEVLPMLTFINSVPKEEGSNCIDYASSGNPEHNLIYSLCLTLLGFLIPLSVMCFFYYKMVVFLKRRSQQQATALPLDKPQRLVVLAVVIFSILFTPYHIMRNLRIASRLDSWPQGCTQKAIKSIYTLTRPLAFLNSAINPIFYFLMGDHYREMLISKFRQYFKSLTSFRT
Method: (§1) Receptor constructs for mSUCNR1 and hSUCNR1 were bought from Origene and cloned into the eukaryotic expression vector pCMV-Tag(2B) (Stratagene).
(§2) Transient transfection of the HEK-293 cells was done with Lipofectamine-2000 according to manufacturer’s protocol. Cells were supplemented with fresh medium after 5 h.
(§3) 96-well plates were coated with poly-D-lysine and HEK-293 cells were plated (35.000 cells/well). Cells were transfected for 5 h the following day and subsequently incubated O/N with 0.5 μCi/mL myo[3H]inositol (Perkin Elmer) in 100 μL growth medium. On day 3 cells were washed with 200 µL HBSS/well (Gibco, Life Technologies) followed by a pre-incubation (30 min, 37 °C) with 100 µL HBSS supplemented with 10 mM LiCl. Cells were stimulated with ligand (120 min, 37 °C) and lysed with 50 µL 10 mM formic acid (30 min on ice). In a white 96 well plate 20 µL cell extracts and 80 µL 1:8 diluted YSi scintillation beads (Perkin Elmer) were mixed. The plate was spun down, and a Packard Top Count NXT counter recorded light emission (scintillation) after an 8 h delay.

[6] = assay type: in vitro ADME; conditions: 2 hours, 37 °C
Method: FaSSIF, FeSSGF and FaSSGF were prepared in accordance to the manufacturers procedure, Biorelevant.com. Triplicates of a 50 μM solution of the test compounds were prepared from a 10 mM stock solution in DMSO diluted with FaSSGF/FaSSIF/FeSSIF. The samples were incubated in an Eppendorf® Thermomixer (37 °C, 650 rpm). Samples were withdrawn at 0 min and 120 min, centrifuged (10 min at 10,000 rpm) and the supernatant analysed by HPLC/UPLC. The stability was calculated based on peak area of a 0 point sample.

[7] = target: T2, hSUCNR1 (Homo sapiens, UniProt Q9BXA5); experiment: IP3 turnover assay in hSUCNR1 transfected HEK-293 cells; assay type: cell-based; conditions: for hSUCNR1 efficacy, %: efficacy relative to succinate (100%), HEK cells (N = 3)
T2 construct: FLAG (own knowledge: pCMV-Tag 2B is an N-terminal FLAG vector); host or cells: HEK-293, transient transfection with Lipofectamine-2000
T2 sequence (Q9BXA5 1-334): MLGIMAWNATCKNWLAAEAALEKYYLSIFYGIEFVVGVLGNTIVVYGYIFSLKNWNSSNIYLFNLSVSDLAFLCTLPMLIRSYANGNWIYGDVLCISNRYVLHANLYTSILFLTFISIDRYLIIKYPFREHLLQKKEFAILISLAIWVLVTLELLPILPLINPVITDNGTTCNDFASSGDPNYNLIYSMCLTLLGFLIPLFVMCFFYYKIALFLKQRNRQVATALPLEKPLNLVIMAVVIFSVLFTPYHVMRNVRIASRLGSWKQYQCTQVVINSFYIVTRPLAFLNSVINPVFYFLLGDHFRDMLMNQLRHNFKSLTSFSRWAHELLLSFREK
Method: as §1, §2, §3

[8] = dose-response curves of induction of IP3 turnover in SUCNR1 transfected HEK cells (N = 3), read-out: hSUCNR1 pEC50 (converted)
[9] = dose-response curves of induction of IP3 turnover in SUCNR1 transfected HEK cells (N = 3), read-out: mSUCNR1 pEC50 (converted)
[10] = @10^−4M, IP3 turnover, relative to succinate (100%)

Row | EC50 [5] | EC50 [7] | SMILES | Active [2] | mSUCNR1 efficacy, % ([5]; IP3 turnover) | hSUCNR1 efficacy, % ([7]; IP3 turnover) | EC50 [7, 8] | EC50 [5, 9] | further results
1 | 51.3 nM | 145 nM | CC(C)Oc1ccc(-c2ccc(C(=O)N[C@@H](CC(=O)O)C(=O)O)o2)cc1 [Compound 22, (5-(4-Isopropoxyphenyl)furan-2-carbonyl)-L-aspartic acid] | 1 (active (1)) | 75.6 ± 1.7% | 69.6 ± 4.3% |  |  | 
2 | 107 nM | 537 nM | CC1(COc2ccc(-c3ccc(C(=O)N[C@@H](CC(=O)O)C(=O)O)o3)cc2)COC1 [Compound 23, (5-(4-((3-Methyloxetan-3-yl)methoxy)phenyl)furan-2-carbonyl)-L-aspartic acid] | 1 (active (1)) | 82.4 ± 1.9% | 76.5 ± 3.1% |  |  | reduction of potency ([5]; relative to the 4-methoxy compound 17, orthologue not stated): > 2 fold
3 | 46.8 nM | 794 nM | CS(=O)(=O)CCCOc1ccc(-c2ccc(C(=O)N[C@@H](CC(=O)O)C(=O)O)o2)cc1 [Compound 24, (5-(4-(3-(Methylsulfonyl)propoxy)phenyl)furan-2-carbonyl)-L-aspartic acid] | 1 (active (1)) | 74.6 ± 2.1% | 63.9 ± 2.4% |  |  | 
4 |  |  | O=C(O)C[C@H](NC(=O)c1cccc(-c2ccc(F)cc2)c1)C(=O)O [Compound 25, (4′-Fluoro-[1,1′-biphenyl]-3-carbonyl)-L-aspartic acid] | 1 (active (1)) | 58.0 ± 4.5% | 49.7 ± 3.9% | 1230 nM | 3980 nM | decrease in potency on the mouse orthologue ([5]; relative to 3): 10 fold
5 |  |  | O=C(O)C[C@H](NC(=O)c1ccc(-c2ccc(F)cc2)cc1)C(=O)O [Compound 26, (4′-Fluoro-[1,1′-biphenyl]-4-carbonyl)-L-aspartic acid] | 0 (inactive (0)) |  |  |  |  | hSUCNR1 % @10^−4M [7, 10]: 4% @10^−4M; mSUCNR1 % @10^−4M [5, 10]: 7% @10^−4M
6 |  |  | O=C(O)C[C@H](NC(=O)c1cccc(-c2ccc(F)cc2)n1)C(=O)O [Compound 27, (6-(4-Fluorophenyl)picolinoyl)-L-aspartic acid] | 1 (active (1)) | 89.3 ± 6.1% | 78.2 ± 8.0% | 933 nM | 794 nM | 
7 |  |  | COc1ccc(-c2cccc(C(=O)N[C@@H](CC(=O)O)C(=O)O)c2)cc1 [Compound 28, (4′-Methoxy-[1,1′-biphenyl]-3-carbonyl)-L-aspartic acid] | 1 (active (1)) | 64.0 ± 2.5% | 58.0 ± 2.7% | 162 nM | 1200 nM | 
8 |  |  | COc1ccc(-c2cccc(C(=O)N[C@@H](CC(=O)O)C(=O)O)n2)cc1 [Compound 29, (6-(4-Methoxyphenyl)picolinoyl)-L-aspartic acid] | 1 (active (1)) | 71.2 ± 3.2% | 52.6 ± 3.9% | 141 nM | 182 nM | 
9 |  |  | O=C(O)C[C@H](NC(=O)c1cccc(-c2ccc(OC(F)(F)F)cc2)c1)C(=O)O [Compound 30, (4′-(Trifluoromethoxy)-[1,1′-biphenyl]-3-carbonyl)-L-aspartic acid] | 1 (active (1)) | 45.3 ± 3.4% | 49.2 ± 2.7% | 58.9 nM | 1450 nM | 

Row | SMILES | EC50 [5] | EC50 [7] | Active [2] | mSUCNR1 efficacy, % ([5]; IP3 turnover) | hSUCNR1 efficacy, % ([7]; IP3 turnover) | EC50 [7, 8] | EC50 [5, 9] | further results
10 | CCOc1ccc(-c2ccc(C(=O)N[C@@H](CC(=O)O)C(=O)O)o2)cc1 [Compound 21, (5-(4-Ethoxyphenyl)furan-2-carbonyl)-L-aspartic acid] | 36.3 nM |  | 1 (active (1)) | 70.2 ± 2.0% |  |  |  | solubility kinetic at 24 h [1]: > 200 µM; stability in mouse liver microsomes [3]: stable; chemical stability [4]: > 98%; stability in FaSSGF ([6]; simulated gastrointestinal fluid FaSSGF): stable; stability in FaSSIF ([6]; simulated gastrointestinal fluid FaSSIF): stable; stability in FeSSIF ([6]; simulated gastrointestinal fluid FeSSIF): stable
